For 14 compounds, IC50 results are on record in US20240294551A1 (AMGEN INC., priority 2022, published 2024).

Molecules are shown by their SMILES. pIC50: −log10 of the molar value. Structures can show the parent of a compound that is named as a salt. Where two headings read alike, the source gives them in different places.

Assay [1] concerns the target GDP-bound KRAS protein (aa 1-169), containing both G12D and C118A amino acid substitutions (Homo sapiens (Human), UniProt P01116, C118A/G12D). The experiment in a line: KRAS G12D Coupled Nucleotide Exchange Assay. Format: biochemical. How it is done:
KRAS G12D Coupled Nucleotide Exchange Assay
Following compound pre-incubation, purified SOS protein (aa 564-1049) and GTP (Roche 10106399001) were added to the assay wells and incubated for an additional 30 min. To determine the extent of inhibition of SOS-mediated nucleotide exchange, purified GST-tagged cRAF (aa 1-149), nickel chelate AlphaLISA acceptor beads (PerkinElmer AL108R), and AlphaScreen glutathione donor beads (PerkinElmer 6765302) were added to the assay wells and incubated for 10 minutes. The assay plates were then read on a PerkinElmer EnVision Multilabel Reader, using AlphaScreen® technology, and data were analyzed using a 4-parameter logistic model to calculate IC50 values.

In assay [2] the target is His-tagged KRAS G12D protein (Homo sapiens (Human), UniProt P01116, G12D). The experiment in a line: KRAS G12D TR-FRET Assay. Format: binding. As to the method:
Compounds of interest were prepared in a dose-response titration in DMSO, and 80 nL were added via Labcyte Echo to each well of a 384-well plate (Perkin Elmer 6008280). The His-tagged KRAS G12D protein (Amgen) was diluted to 20 nM in Assay Buffer (20 mM HEPES, pH 7.4, 10 mM MgCl2, 50 mM NaCl, 0.1% BSA, 0.01% Tween-20, 10 μM GDP) and 2 μL was added to the appropriate wells of the 384-well plate. The plate was incubated for 30 minutes at room temperature. Biotinylated KRPep-2d substrate (Amgen) was diluted to 20 nM in Assay Buffer and 2 μL was added to all wells and incubated for 1 hour at room temperature. Detection Reagent (0.4 nM LANCE Eu-W1024 Anti-6×His (Perkin Elmer AD0401), 5 nM streptavidin-d2 (Cisbio 610SADLA)) was prepared in Assay Buffer, then 4 μL was added to the plate and incubated for 1 hour at room temperature. Plates were read using PerkinElmer EnVision (ex: 320 nm, em1: 665 nm, em2: 615 nm) and em1/em2 data was used to generate curve fits using a 4-parameter logistic model to calculate IC50 values.

[3] abbreviates: read-out: KRAS G12D Coupled Exchange IC50.
Where [4] appears, read: read-out: KRAS G12D Binding IC50.
Setting [5] is: 2 hours compound pre-incubation, read-out: KRAS G12D Coupled Exchange.
[6] abbreviates: TR-FRET, read-out: KRAS G12D Binding.

Chain of His-tagged KRAS G12D protein (P01116 other isoform, or with tags, fused parts or gaps G12D): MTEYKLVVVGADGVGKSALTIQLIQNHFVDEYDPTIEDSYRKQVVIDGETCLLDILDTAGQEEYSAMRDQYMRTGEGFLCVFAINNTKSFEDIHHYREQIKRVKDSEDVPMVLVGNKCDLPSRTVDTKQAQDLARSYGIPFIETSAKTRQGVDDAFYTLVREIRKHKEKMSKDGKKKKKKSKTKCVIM
Chain of GDP-bound KRAS protein (aa 1-169), containing both G12D and C118A amino acid substitutions (P01116 other isoform, or with tags, fused parts or gaps G12D/C118A): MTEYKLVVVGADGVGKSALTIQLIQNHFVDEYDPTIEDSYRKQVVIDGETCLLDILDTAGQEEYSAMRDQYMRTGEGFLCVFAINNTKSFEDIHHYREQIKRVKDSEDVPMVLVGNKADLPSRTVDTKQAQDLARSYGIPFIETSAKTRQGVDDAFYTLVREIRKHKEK

Regarding `O=C1CCCCc2c(Cl)cc3[nH]ncc3c2-c2ncc3c(nc(OC[C@@]45CCCN4C[C@H](F)C5)nc3c2F)N2C[C@H](O)C[C@@H](C2)N1` (racemic) [Example 276, (17S,19R)-9-chloro-30-fluoro-24-(((2R,7aS)-2-fluorotetrahydro-1H-pyrrolo[1,2-a]pyrrol-7a(5H)-yl)methoxy)-19-hydroxy-5,6,16,21,23,25,29-heptaazahexacyclo[24.3.1.1~17,21~.0~2,10~.0~3,7~.0~22,27~]hentriaconta-1(30),2,4,7,9,22,24,26,28-nonaen-15-one], the IC50 in assay [1] (setting [3]) was 153 nM. Also, the pIC50 in assay [2] (setting [4]) was 6.30.

As for `Cc1cc2[nH]ncc2c2c1[C@@H]1C[C@@H]1CCOC[C@H]1CN(CCO1)c1nc(OC[C@@]34CCCN3C[C@H](F)C4)nc3c(F)c-2ncc13` (single isomer, unassigned) [Example 225], the pIC50 in assay [1] (setting [3]) is 5.32; in assay [2] (setting [4]), 5.02.

As to `Fc1c2ncc3c(nc(OC[C@@]45CCCN4C[C@H](F)C5)nc13)N1CCO[C@]3(C1)C[C@H](C3)OCCCCc1c(Cl)cc3[nH]ncc3c1-2` (single isomer, unassigned) [Example 262], the pIC50 in assay [1] (setting [3]) was 5.62; in assay [2] (setting [4]) it was 5.49.

For `Cc1cc2[nH]ncc2c2c1CCOC(=O)O[C@H]1C[C@@]3(CCCN(C3)c3nc(OC[C@@H]4CCCN4C)nc4c(F)c-2ncc34)C1` (single isomer, unassigned) [Example 325], the pIC50 is 7.19 in assay [1] (setting [3]) and 7.00 in assay [2] (setting [4]).

`O=C1CCCCc2c(Cl)cc3[nH]ncc3c2-c2ncc3c(nc(OC[C@@]45CCCN4C[C@H](F)C5)nc3c2F)N2CC[C@H]3[C@@H](C2)N1CC3(F)F` (single isomer, unassigned) [Example 402]: the pIC50 is 7.34 in assay [1] (setting [5]) and 7.01 in assay [2] (setting [6]).

Regarding `OC1c2ncc(o2)CCc2c(Cl)cc3[nH]ncc3c2-c2ncc3c(nc(OC[C@@]45CCCN4C[C@H](F)C5)nc3c2F)N2CCO[C@@H]1C2` (stereo in doubt) [Example 395, (17R,18R)-9-chloro-31-fluoro-25-(((2R,7aS)-2-fluorotetrahydro-1H-pyrrolo[1,2-a]pyrrol-7a(5H)-yl)methoxy)-19,33-dioxa-5,6,15,22,24,26,30-heptaazaheptacyclo[25.3.1.1~13,16~.1~18,22~.0~2,10~.0~3,7~.0~23,28~]tritriaconta-1(31),2,4,7,9,13,15,23,25,27,29-undecaen-17-ol], the pIC50 in assay [1] (setting [5]) was 6.70; in assay [2] (setting [6]), 5.93.

`COc1nc2c3cnc(c(F)c3n1)-c1cc(O)cc3ccc(F)c(c13)CCCC(=O)N[C@]1(C)CCCN2C1` [Example 6, (15R)-22,31-Difluoro-27-hydroxy-8-methoxy-15-methyl-3,7,9,11,16-pentaazahexacyclo[19.7.1.1˜2,6˜.1˜11,15˜.0˜5,10˜.0˜25,29˜]hentriaconta-1(28),2(31),3,5,7,9,21,23,25(29),26-decaen-17-one bis(2,2,2-trifluoroacetate)]: the results for the pIC50 in assay [1] (setting [3]) and in assay [2] (setting [4]) were 6.90 and 6.81, respectively.

On to `O=C1CCCCc2cccc3cc(O)cc(c23)-c2ncc3c(nc(OC[C@@]45CCCN4C[C@H](F)C5)nc3c2F)N2CCCN1CC2` [Example 9, 32-Fluoro-4-(((2R,7aS)-2-fluorotetrahydro-1H-pyrrolo[1,2-a]pyrrol-7a(5H)-yl)methoxy)-13-hydroxy-1,3,5,9,25-pentaazahexacyclo[23.3.2.1˜6,10˜.1˜11,15˜.0˜2,7˜.0˜19,31˜]dotriaconta-2,4,6(32),7,9,11(31),12,14,16,18-decaen-24-one bis(2,2,2-trifluoroacetate)], for which the pIC50 is 6.53 in assay [1] (setting [3]) and 6.52 in assay [2] (setting [4]).

Regarding `Cc1nc2c3cnc(c(F)c3n1)-c1cc(O)cc3ccc(F)c(c13)CCCC(=O)N[C@]1(C)CCCN2C1.O=C(O)C(F)(F)F` [Example 14, (15R)-22,31-Difluoro-27-hydroxy-8,15-dimethyl-3,7,9,11,16-pentaazahexacyclo[19.7.1.1˜2,6˜.1˜11,15˜.0˜5,10˜.0˜25,29˜]hentriaconta-1(28),2(31),3,5,7,9,21,23,25(29),26-decaen-17-one 2,2,2-trifluoroacetate], the IC50 in assay [1] (setting [3]) was determined as 296 nM. For the same compound, the pIC50 in assay [2] (setting [4]) was 6.46.

Regarding `Cc1cc2[nH]ncc2c2c1CCCCCC(=O)N[C@]1(C)CCCN(C1)c1nc(OC[C@@]34CCCN3C[C@H](F)C4)nc3c(F)c-2ncc13` [Example 21, (18R)-31-Fluoro-25-(((2R,7aS)-2-fluorotetrahydro-1H-pyrrolo[1,2-a]pyrrol-7a(5H)-yl)methoxy)-9,18-dimethyl-5,6,17,22,24,26,30-heptaazahexacyclo[25.3.1.1˜18,22˜0.0˜2,10˜0.0˜3,7˜0.0˜23,28˜]dotriaconta-1(31),2,4,7,9,23,25,27,29-nonaen-16-one], the pIC50 in assay [1] (setting [3]) and in assay [2] (setting [4]) was 7.37 throughout.

For `Cc1c2ncc3c(nc(OCC45CCC(CC4)O5)nc13)N1CCC[C@](C)(C1)NC(=O)CCCc1c(F)ccc3cc(O)cc-2c13` [Example 23, (15R)-22-Fluoro-27-hydroxy-15,31-dimethyl-8-((1r,4r)-7-oxabicyclo[2.2.1]heptan-1-ylmethoxy)-3,7,9,11,16-pentaazahexacyclo[19.7.1.1˜2,6˜.1˜11,15˜.0˜5,10˜.0˜25,29˜]hentriaconta-1(28),2(31),3,5,7,9,21,23,25(29),26-decaen-17-one], the pIC50 in assay [1] (setting [3]) was 6.95; in assay [2] (setting [4]), 6.80.

As for `Cc1c2ncc3c(nc(OC[C@]45CC[C@@H](CC4)C(=O)N5)nc13)N1CCC[C@](C)(C1)NC(=O)CCCc1c(F)ccc3cc(O)cc-2c13` [Example 25, (15R)-22-Fluoro-27-hydroxy-15,31-dimethyl-8-(((1s,4s)-3-oxo-2-azabicyclo[2.2.2]octan-1-yl)methoxy)-3,7,9,11,16-pentaazahexacyclo[19.7.1.1˜2,6˜.1˜11,15˜.0˜5,10˜.0˜25,29˜]hentriaconta-1(28),2(31),3,5,7,9,21,23,25(29),26-decaen-17-one], the values for the pIC50 in assay [1] (setting [3]) and in assay [2] (setting [4]) were 8.15 and 8.00, respectively.

With `Cc1c2ncc3c(nc(OCC(C)(C)O)nc13)N1CCC[C@](C)(C1)NC(=O)CCCc1c(F)ccc3cc(O)cc-2c13` [Example 26, (15R)-22-Fluoro-27-hydroxy-8-(2-hydroxy-2-methylpropoxy)-15,31-dimethyl-3,7,9,11,16-pentaazahexacyclo[19.7.1.1˜2,6˜.1˜11,15˜.0˜5,10˜.0˜25,29˜]hentriaconta-1(28),2(31),3,5,7,9,21,23,25(29),26-decaen-17-one], the pIC50 is 6.96 in assay [1] (setting [3]) and 6.91 in assay [2] (setting [4]).

Regarding `C[C@@]12CCCN(C1)c1nc(OC[C@@]34CCCN3C[C@H](F)C4)nc3c(F)c(ncc13)-c1cc(O)cc3c1[C@H](CCCC(=O)N2)CCC3` [Example 28, (15R,21S)-31-fluoro-8-(((2R,7aS)-2-fluorotetrahydro-1H-pyrrolo[1,2-a]pyrrol-7a(5H)-yl)methoxy)-27-hydroxy-15-methyl-3,7,9,11,16-pentaazahexacyclo[19.7.1.1˜2,6˜.1˜11,15˜.0˜5,10˜.0˜25,29˜]hentriaconta-1(29),2(31),3,5,7,9,25,27-octaen-17-one 2,2,2-trifluoroacetate salt], the figures for the pIC50 in assay [1] (setting [3]) and in assay [2] (setting [4]) were 7.32 and 7.17, respectively.
